Assay results as given in patent publication US12187716B2, “TYK2 kinase inhibitors” (SAREUM LIMITED, priority 2018, dated 2025).

Legend:
[1] = target: JAK3 (Homo sapiens, UniProt P52333); assay: JAK3 kinase inhibition assay (33P-ATP filter binding, Reaction Biology)
[2] = target: TYK2 (Homo sapiens, UniProt P29597); assay: TYK2 kinase inhibition assay (33P-ATP filter binding, Reaction Biology)
[3] = test system: pSTAT3 in HT29 cells; assay: pSTAT3 inhibition in response to IL-22 stimulation in serum starved HT29 cells; type: cell-based
Method: HT29 cells were serum starved overnight before the four test compounds were diluted to generate a 9-point semi-log dose dilution with a top concentration of 10 μM, plus vehicle control. HT29 cells were incubated with the test compounds for 20 min at 37° C. HT29 cells were incubated for a further 15 min with 10 ng/ml human IL-22 before cells were fixed with 4% PFA for 10 min, and 90% methanol for 30 min before being labelled with a phospho-STAT3Y705 antibody (CST #9145). Cells were rinsed three times using 0.5% BSA/PBS solution before being incubated with Alexa-488 anti-rabbit secondary antibodies.
Mean fluorescence intensity of phospho-STAT3 in single cells was analysed by flow cytometry using an Intellicyt iQue instrument and FlowJo software. The IC50 was determined using a four-parameter analysis following removal of background signal and normalisation to the DMSO control.

[4] = target: JAK1 (Homo sapiens, UniProt P23458); assay: JAK1 kinase inhibition assay (33P-ATP filter binding, Reaction Biology)
Sequence of JAK1 (P23458 866-1154): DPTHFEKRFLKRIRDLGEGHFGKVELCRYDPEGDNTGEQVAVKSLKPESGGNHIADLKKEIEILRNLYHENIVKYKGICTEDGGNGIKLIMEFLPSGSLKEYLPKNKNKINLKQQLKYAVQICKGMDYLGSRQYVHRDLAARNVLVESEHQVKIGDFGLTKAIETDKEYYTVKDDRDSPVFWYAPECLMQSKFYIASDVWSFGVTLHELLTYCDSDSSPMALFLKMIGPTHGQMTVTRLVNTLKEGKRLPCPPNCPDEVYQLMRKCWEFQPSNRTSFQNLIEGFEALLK

Sequence of TYK2 (P29597 833-1187): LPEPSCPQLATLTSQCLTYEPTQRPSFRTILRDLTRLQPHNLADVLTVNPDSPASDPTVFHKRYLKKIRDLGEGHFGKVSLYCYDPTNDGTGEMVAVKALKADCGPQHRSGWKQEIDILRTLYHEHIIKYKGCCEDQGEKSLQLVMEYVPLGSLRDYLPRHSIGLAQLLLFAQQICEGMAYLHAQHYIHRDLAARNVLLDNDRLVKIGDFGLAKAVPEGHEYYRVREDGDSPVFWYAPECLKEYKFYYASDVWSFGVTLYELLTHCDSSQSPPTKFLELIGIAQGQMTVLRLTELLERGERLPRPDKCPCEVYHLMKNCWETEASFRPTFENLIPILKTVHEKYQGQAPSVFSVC
Sequence of JAK3 (P52333 781-1124): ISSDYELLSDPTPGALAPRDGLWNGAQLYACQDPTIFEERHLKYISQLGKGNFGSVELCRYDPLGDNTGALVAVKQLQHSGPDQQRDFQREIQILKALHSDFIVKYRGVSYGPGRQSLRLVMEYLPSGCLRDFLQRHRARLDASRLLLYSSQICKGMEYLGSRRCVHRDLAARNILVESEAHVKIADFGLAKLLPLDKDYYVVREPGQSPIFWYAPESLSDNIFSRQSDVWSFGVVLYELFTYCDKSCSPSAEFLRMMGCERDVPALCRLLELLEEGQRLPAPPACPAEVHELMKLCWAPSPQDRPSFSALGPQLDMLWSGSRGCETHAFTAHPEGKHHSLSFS

Compound: NC(=O)c1nc(-c2c(F)cccc2Cl)oc1Nc1ccc(C(=O)N2CCOCC2)cc1 [A, 2-(2-chloro-6-fluoro-phenyl)-5-[4-(morpholine-4-carbonyl)-phenylamino]-oxazole-4-carboxylic acid amide, reference compound]
- IC50 [1]: 290 nM
- IC50 [2]: 10 nM
- inhibition at 10 µM ([3]; HT-29, HT29 cells, 10 ng/ml human IL-22, 10 μM compound): 96.9%
- IC50 ([3]; Homo sapiens, HT-29, HT29 cells, 10 ng/ml human IL-22): 170 nM
- IC50 [4]: 49 nM
